The source of these data is US20200038474A1, “COMPOSITION, USE AND METHOD FOR TREATING NEURODEGENERATIVE DISEASES” (FUNDAÇÃO BUTANTAN, priority 2016, published 2020).

Test [1] deals with Experimental Autoimmune Encephalomyelitis. The experiment in a line: Experimental Autoimmune Encephalomyelitis (EAE) induced by MOG35-55, clinical signs scored 0 to 5. The format is in vivo, female C57BL/6 mice.
The subject of test [2] is κ opioid receptor. To be noted: literature report; cited from earlier work.

Consider EFSPENCQGESQPC [Crotalphine], for which the “animals that reached clinical score 2” value in test [1] (single dose of 50 μg/kg on the 5th day after immunization, 100% of saline controls reached a score between 3 and 5) is given as 43%. In test [1] (single dose of 50 μg/kg on the 5th day after immunization, vs saline control, n=8, p<0.05), the “severity of clinical signs” value is reported as “significantly decreased the severity of clinical signs”. The “motor impairment in animal model of multiple sclerosis” value in test [1] (summary statement) is listed as “partially reverse the motor impairment”. Moreover, the antinociception entry in test [2] was “induces antinociception mediated by κ opioid receptor activation”.
